# Measurements taken from publication PMC5486812, “Characterisation of three fungal glucuronoyl esterases on glucuronic acid ester model compounds” (Applied Microbiology and Biotechnology, 2017).
# Target: T1, StGE2 (Thermothelomyces thermophilus, UniProt G2QJR6)
# T1 construct: gene ge2; produced in a P. pastoris strain from the OPTIBIOCAT consortium; construct not described
# T1 sequence (G2QJR6 19-397): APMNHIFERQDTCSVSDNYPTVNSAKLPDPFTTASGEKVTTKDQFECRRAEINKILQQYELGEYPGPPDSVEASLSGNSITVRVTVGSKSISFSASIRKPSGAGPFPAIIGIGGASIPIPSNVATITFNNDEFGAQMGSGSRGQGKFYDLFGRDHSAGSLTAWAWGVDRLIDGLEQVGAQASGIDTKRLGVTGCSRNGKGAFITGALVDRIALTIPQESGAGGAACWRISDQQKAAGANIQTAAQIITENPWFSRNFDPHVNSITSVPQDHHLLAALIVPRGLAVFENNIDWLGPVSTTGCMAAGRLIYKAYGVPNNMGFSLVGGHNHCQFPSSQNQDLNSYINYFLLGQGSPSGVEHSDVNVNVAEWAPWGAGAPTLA
# Test: coupled spectrophotometric GlcA release (K-URONIC kit), relative activity
# Type: biochemical
# Details: 2 mM substrate, pH 6.0, 35 °C, 30 min; purification of StGE2 not described
smiles,measurement,value
O=C(OCc1ccccc1)[C@H]1OC(O)[C@H](O)[C@@H](O)[C@@H]1O (stereo partly shown) [BnGlcA],"coupled spectrophotometric GlcA release (K-URONIC kit), relative activity",enzyme action on BnGlcA produced the highest amount of hydrolysed glucuronic acid
